Assay results: patent US11109593B2, “Isoxazolin-5-one derivative and herbicide containing same as active ingredient” (HOKKO CHEMICAL INDUSTRY CO., LTD., priority 2017, dated 2021)

system: Echinochloa crus-galli; experiment: Test Example 4: herbicidal effect test by treatment of leave and stem in dry field farming (seven days after seeding); assay type: in vivo; conditions: 120 g/10a active ingredient; emulsion sprayed seven days after seeding; evaluated 14 days after treatment
Description: (§1) This test was conducted in a double system per one agent solution concentration area, and the herbicidal rates (%) were determined by the following equation (Math. 1) on 14 days after the treatment with the agents. Herbicidal Rate (%)={1-(Average Dry Weight (g) of Plant of Treated Area)/(Average Dry Weight (g) of Plant of Untreated Area)}×100 [Math. 1]
(§2) Herbicidal Effect Test by Treatment of Leave and Stem in Dry Field Farming
(§3) Pots with a size of 36 cm^2 were filled with a dry field farming soil (alluvium). The soil of the top layer of 1 cm and seeds of weeds, namely southern crabgrass, Echinochloa crus-galli, Chenopodium album and Amaranthus viridis, 20 seeds each, were evenly mixed, and the top layer was gently pressed. Emulsions prepared using the compounds in Table 6 below according to Formulation Example 5 were diluted with water seven days after seeding, and the water-diluted agent solutions were sprayed to the soil surfaces at a ratio of 100 liters per 10 ares. The converted amount of the applied active ingredient corresponded to 120 g per 10 ares. The herbicidal effects were evaluated by the same standard as that in Test Example 1 on 14 days after the treatment with the agents. […] The compound numbers in Table 6 are the same as those in Table 1 and Table 2 above.

Row | Structure (SMILES) | herbicidal effect (herbicidal rate), Echinochloa crus-galli
1 | C=CC(C)n1oc(=O)c(Cc2ccccc2N(S(=O)(=O)C(F)(F)F)S(=O)(=O)C(F)(F)F)c1C (centres unmarked) [Compound 1-986] | 90%
2 | Cc1c(Cc2ccccc2N(C(=O)OCc2ccccc2)S(=O)(=O)C(F)(F)F)c(=O)on1C(C)(C)C [Compound 1-781] | 90%

system: Chenopodium album; experiment: as above; assay type: in vivo; conditions: 120 g/10a active ingredient; emulsion sprayed seven days after seeding; evaluated 14 days after treatment
Description: as §1, §2, §3

Row | Structure (SMILES) | herbicidal effect (herbicidal rate), Chenopodium album
3 | C=CC(C)n1oc(=O)c(Cc2ccccc2N(S(=O)(=O)C(F)(F)F)S(=O)(=O)C(F)(F)F)c1C (centres unmarked) [Compound 1-986] | 40%
4 | Cc1c(Cc2ccccc2N(C(=O)OCc2ccccc2)S(=O)(=O)C(F)(F)F)c(=O)on1C(C)(C)C [Compound 1-781] | 40%

system: southern crabgrass; experiment: as above; assay type: in vivo; conditions: 120 g/10a active ingredient; emulsion sprayed seven days after seeding; evaluated 14 days after treatment
Description: as §1, §2, §3

Row | Structure (SMILES) | herbicidal effect (herbicidal rate), southern crabgrass
5 | C=CC(C)n1oc(=O)c(Cc2ccccc2N(S(=O)(=O)C(F)(F)F)S(=O)(=O)C(F)(F)F)c1C (centres unmarked) [Compound 1-986] | 90%
6 | Cc1c(Cc2ccccc2N(C(=O)OCc2ccccc2)S(=O)(=O)C(F)(F)F)c(=O)on1C(C)(C)C [Compound 1-781] | 90%

system: Amaranthus viridis; experiment: as above; assay type: in vivo; conditions: 120 g/10a active ingredient; emulsion sprayed seven days after seeding; evaluated 14 days after treatment
Description: as §1, §2, §3

Row | Structure (SMILES) | herbicidal effect (herbicidal rate), Amaranthus viridis
7 | C=CC(C)n1oc(=O)c(Cc2ccccc2N(S(=O)(=O)C(F)(F)F)S(=O)(=O)C(F)(F)F)c1C (centres unmarked) [Compound 1-986] | 60%
8 | Cc1c(Cc2ccccc2N(C(=O)OCc2ccccc2)S(=O)(=O)C(F)(F)F)c(=O)on1C(C)(C)C [Compound 1-781] | 40%

system: Echinochloa crus-galli; experiment: Test Example 1: herbicidal effect test by treatment of rice paddy soil (immediately after seeding); assay type: in vivo; conditions: 120 g/10a active ingredient, dry weight vs untreated area, 14 days after treatment
In short: (§4)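 Puddled, fertilized (N:P:K=17:17:17) paddy soil in Wagner pots; seeds sown 0–1 cm deep, flooded to about 3 cm. Emulsifiable formulations diluted in water and dropped into the water immediately after seeding at 120 g active ingredient per 10 ares; greenhouse. Herbicidal rate from dry weight vs untreated at 14 days.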

Row | Structure (SMILES) | Herbicidal rate (%) Echinochloa crus-galli
9 | C=CC(C)n1oc(=O)c(Cc2ccccc2N(S(=O)(=O)C(F)(F)F)S(=O)(=O)C(F)(F)F)c1C (centres unmarked) [Compound 1-986] | 90%
10 | Cc1c(Cc2ccccc2N(C(=O)OCc2ccccc2)S(=O)(=O)C(F)(F)F)c(=O)on1C(C)(C)C [Compound 1-781] | 90%

system: broad leaf weeds (Lindernia pyxidaria and Monochoria vaginalis); experiment: as above; assay type: in vivo; conditions: Lindernia pyxidaria, 120 g/10a active ingredient, dry weight vs untreated area, 14 days after treatment
In short: as §4

Row | Structure (SMILES) | Herbicidal rate (%) Lindernia pyxidaria
11 | C=CC(C)n1oc(=O)c(Cc2ccccc2N(S(=O)(=O)C(F)(F)F)S(=O)(=O)C(F)(F)F)c1C (centres unmarked) [Compound 1-986] | 90%
12 | Cc1c(Cc2ccccc2N(C(=O)OCc2ccccc2)S(=O)(=O)C(F)(F)F)c(=O)on1C(C)(C)C [Compound 1-781] | 90%

same assay, conditions: Monochoria vaginalis, 120 g/10a active ingredient, dry weight vs untreated area, 14 days after treatment

Row | Structure (SMILES) | Herbicidal rate (%) Monochoria vaginalis
13 | C=CC(C)n1oc(=O)c(Cc2ccccc2N(S(=O)(=O)C(F)(F)F)S(=O)(=O)C(F)(F)F)c1C (centres unmarked) [Compound 1-986] | 80%
14 | Cc1c(Cc2ccccc2N(C(=O)OCc2ccccc2)S(=O)(=O)C(F)(F)F)c(=O)on1C(C)(C)C [Compound 1-781] | 90%

system: Scirpus juncoides; experiment: as above; assay type: in vivo; conditions: 120 g/10a active ingredient, dry weight vs untreated area, 14 days after treatment
In short: as §4

Row | Structure (SMILES) | Herbicidal rate (%) Scirpus juncoides
15 | C=CC(C)n1oc(=O)c(Cc2ccccc2N(S(=O)(=O)C(F)(F)F)S(=O)(=O)C(F)(F)F)c1C (centres unmarked) [Compound 1-986] | 90%
16 | Cc1c(Cc2ccccc2N(C(=O)OCc2ccccc2)S(=O)(=O)C(F)(F)F)c(=O)on1C(C)(C)C [Compound 1-781] | 90%

system: Echinochloa crus-galli; experiment: Test Example 3: herbicidal effect test by treatment of dry field farming soil (one day after seeding); assay type: in vivo; conditions: 120 g/10a active ingredient, evaluated 14 days after treatment
In short: (§5)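 Seeds (20 each) mixed into top 1 cm of alluvium in pots, surface pressed. One day later, diluted emulsion sprayed onto soil, 100 L/10 a, 120 g a.i./10 a. Dry weight at 14 d vs untreated gave % herbicidal rate; n=2.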

Row | Structure (SMILES) | herbicidal rate, Echinochloa crus-galli
17 | C=CC(C)n1oc(=O)c(Cc2ccccc2N(S(=O)(=O)C(F)(F)F)S(=O)(=O)C(F)(F)F)c1C (centres unmarked) [Compound 1-986] | 100%
18 | Cc1c(Cc2ccccc2N(C(=O)OCc2ccccc2)S(=O)(=O)C(F)(F)F)c(=O)on1C(C)(C)C [Compound 1-781] | 90%

system: Chenopodium album; experiment: as above; assay type: in vivo; conditions: 120 g/10a active ingredient, evaluated 14 days after treatment
In short: as §5

Row | Structure (SMILES) | herbicidal rate, Chenopodium album
19 | C=CC(C)n1oc(=O)c(Cc2ccccc2N(S(=O)(=O)C(F)(F)F)S(=O)(=O)C(F)(F)F)c1C (centres unmarked) [Compound 1-986] | 60%
20 | Cc1c(Cc2ccccc2N(C(=O)OCc2ccccc2)S(=O)(=O)C(F)(F)F)c(=O)on1C(C)(C)C [Compound 1-781] | 90%

system: southern crabgrass; experiment: as above; assay type: in vivo; conditions: 120 g/10a active ingredient, evaluated 14 days after treatment
In short: as §5

Row | Structure (SMILES) | herbicidal rate, southern crabgrass
21 | C=CC(C)n1oc(=O)c(Cc2ccccc2N(S(=O)(=O)C(F)(F)F)S(=O)(=O)C(F)(F)F)c1C (centres unmarked) [Compound 1-986] | 80%
22 | Cc1c(Cc2ccccc2N(C(=O)OCc2ccccc2)S(=O)(=O)C(F)(F)F)c(=O)on1C(C)(C)C [Compound 1-781] | 90%

system: Amaranthus viridis; experiment: as above; assay type: in vivo; conditions: 120 g/10a active ingredient, evaluated 14 days after treatment
In short: as §5

Row | Structure (SMILES) | herbicidal rate, Amaranthus viridis
23 | C=CC(C)n1oc(=O)c(Cc2ccccc2N(S(=O)(=O)C(F)(F)F)S(=O)(=O)C(F)(F)F)c1C (centres unmarked) [Compound 1-986] | 60%
24 | Cc1c(Cc2ccccc2N(C(=O)OCc2ccccc2)S(=O)(=O)C(F)(F)F)c(=O)on1C(C)(C)C [Compound 1-781] | 90%

system: Echinochloa crus-galli; experiment: Test Example 2: herbicidal effect test by treatment during growing period in paddy rice cultivation (seven days after seeding); assay type: in vivo; conditions: 120 g/10a active ingredient, assessed 14 days after treatment, dry weight vs untreated area
In short: (§6)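 Herbicidal rate = (1 − treated/untreated mean dry weight) × 100, scored 14 days after application, two replicates per rate. Treatment: diluted emulsion dropped onto paddy water seven days after sowing, 120 g active ingredient per 10 ares, in a glass greenhouse.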

Row | Structure (SMILES) | Herbicidal rate (%) Echinochloa crus-galli
25 | C=CC(C)n1oc(=O)c(Cc2ccccc2N(S(=O)(=O)C(F)(F)F)S(=O)(=O)C(F)(F)F)c1C (centres unmarked) [Compound 1-986] | 90%
26 | Cc1c(Cc2ccccc2N(C(=O)OCc2ccccc2)S(=O)(=O)C(F)(F)F)c(=O)on1C(C)(C)C [Compound 1-781] | 90%

system: broad leaf weeds (Lindernia pyxidaria and Monochoria vaginalis); experiment: as above; assay type: in vivo; conditions: Lindernia pyxidaria, 120 g/10a active ingredient, assessed 14 days after treatment, dry weight vs untreated area
In short: as §6

Row | Structure (SMILES) | Herbicidal rate (%) Lindernia pyxidaria
27 | C=CC(C)n1oc(=O)c(Cc2ccccc2N(S(=O)(=O)C(F)(F)F)S(=O)(=O)C(F)(F)F)c1C (centres unmarked) [Compound 1-986] | 40%
28 | Cc1c(Cc2ccccc2N(C(=O)OCc2ccccc2)S(=O)(=O)C(F)(F)F)c(=O)on1C(C)(C)C [Compound 1-781] | 90%

same assay, conditions: Monochoria vaginalis, 120 g/10a active ingredient, assessed 14 days after treatment, dry weight vs untreated area

Row | Structure (SMILES) | Herbicidal rate (%) Monochoria vaginalis
29 | C=CC(C)n1oc(=O)c(Cc2ccccc2N(S(=O)(=O)C(F)(F)F)S(=O)(=O)C(F)(F)F)c1C (centres unmarked) [Compound 1-986] | 70%
30 | Cc1c(Cc2ccccc2N(C(=O)OCc2ccccc2)S(=O)(=O)C(F)(F)F)c(=O)on1C(C)(C)C [Compound 1-781] | 90%

system: Scirpus juncoides; experiment: as above; assay type: in vivo; conditions: 120 g/10a active ingredient, assessed 14 days after treatment, dry weight vs untreated area
In short: as §6

Row | Structure (SMILES) | Herbicidal rate (%) Scirpus juncoides
31 | C=CC(C)n1oc(=O)c(Cc2ccccc2N(S(=O)(=O)C(F)(F)F)S(=O)(=O)C(F)(F)F)c1C (centres unmarked) [Compound 1-986] | 90%
32 | Cc1c(Cc2ccccc2N(C(=O)OCc2ccccc2)S(=O)(=O)C(F)(F)F)c(=O)on1C(C)(C)C [Compound 1-781] | 90%
